Test results reported in paper PMC11891075, “TRIM66-HP1γ remodels the chromatin through phase separation” (Biophysics Reports, 2025).
Residues, ends and D or L forms follow the SMILES beside them.

Legend:
[1] = molecular target: HP1γ chromo shadow domain (CSD), residues 110-176 (human) (UniProt Q13185); assay: ITC; MicroCal PEAQ-ITC, 20 °C, Buffer B (20 mmol/L Tris-HCl, 150 mmol/L NaCl, pH 7.5); TRIM66 peptide titrated into HP1γ-CSD
[2] = molecular target: T1, HP1γ-CSD (WT) (Homo sapiens, UniProt Q13185); assay: Isothermal titration calorimetry (ITC), HP1γ-CSD wild type; format: binding; settings: 20 °C, 20 mmol/L Tris-HCl, 150 mmol/L NaCl, pH 7.5, Fig. 2F
T1 construct: HP1γ CSD (110–176aa) and TRIM66 PxVxL motif peptide(856–868aa), mixed at a molar ratio of 1:1.2; made in house
T1 sequence (Q13185 110-176): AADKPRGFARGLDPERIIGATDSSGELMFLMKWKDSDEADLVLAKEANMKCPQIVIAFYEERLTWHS
Protocol: (§1) HP1γ_CSD (residues 110–176) was amplified by PCR from the human brain cDNA library and cloned into the pET-28a(+) expression vector (Novagen), contained an N-terminal 6× His tag and a tobacco etch virus (TEV) protease cleavage site. All mutants of HP1 were generated using a MutantBEST kit (Takara) and confirmed by DNA sequencing. All the proteins were expressed in Escherichia coli BL21 (DE3) cells (Novagen) cultured in LB medium at 37 °C to OD600 = 0.8, then shifted to 16 °C and induced with 0.5 mmol/L isopropyl β-D-1-thiogakactopyranoside (IPTG) for 24 h. Bacterial pellets were resuspended in Buffer A (20 mmol/L Tris-HCl, 500 mmol/L NaCl, pH 7.5) and lysed by sonication on ice. Then, soluble proteins were purified with a Ni^2+-chelating column (Cytiva Life Sciences) and a Superdex 75 column (Cytiva Life Sciences). After being cleaved by TEV protease overnight at 4 °C to remove the 6× His tag, the purified protein was concentrated to ∼10 mg/mL in Buffer B (20 mmol/L Tris-HCl, 150 mmol/L NaCl, pH 7.5) and stored at –80 °C. […]
(§2) Isothermal titration calorimetry (ITC) assays were performed using a MicroCal PEAQ-ITC calorimeter (Cytiva Life Sciences), and all experiments were carried out at 20 °C. […] The concentrations of the proteins were determined spectrophotometrically. […]

[3] = molecular target: T2, HP1γ-CSD^W174A (Homo sapiens, UniProt Q13185, W174A); assay: ITC, HP1γ-CSD W174A mutant; format: binding; settings: 20 °C, 20 mmol/L Tris-HCl, 150 mmol/L NaCl, pH 7.5, Fig. 2F
T2 construct: HP1γ CSD (110–176aa) and TRIM66 PxVxL motif peptide(856–868aa), mixed at a molar ratio of 1:1.2; His6 (N); made in house
T2 sequence (Q13185 110-176 W174A): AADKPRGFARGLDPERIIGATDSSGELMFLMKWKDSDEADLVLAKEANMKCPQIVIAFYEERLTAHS
Protocol: as §1, §2

[4] = molecular target: T3, HP1γ-CSD^L172A (Homo sapiens, UniProt Q13185, L172A); assay: ITC, HP1γ-CSD L172A mutant; format: binding; settings: 20 °C, 20 mmol/L Tris-HCl, 150 mmol/L NaCl, pH 7.5, Fig. 2F
T3 construct: HP1γ CSD (110–176aa) and TRIM66 PxVxL motif peptide(856–868aa), mixed at a molar ratio of 1:1.2; His6 (N); made in house
T3 sequence (Q13185 110-176 L172A): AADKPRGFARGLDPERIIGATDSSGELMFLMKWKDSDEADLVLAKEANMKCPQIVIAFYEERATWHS
Protocol: as §1, §2

[5] = molecular target: T4, HP1γ-CSD^I165A (Homo sapiens, UniProt Q13185, I165A); assay: ITC, HP1γ-CSD I165A mutant (monomeric); format: binding; settings: 20 °C, 20 mmol/L Tris-HCl, 150 mmol/L NaCl, pH 7.5, Fig. 2F
T4 construct: HP1γ CSD (110–176aa) and TRIM66 PxVxL motif peptide(856–868aa), mixed at a molar ratio of 1:1.2; His6 (N); made in house
T4 sequence (Q13185 110-176 I165A): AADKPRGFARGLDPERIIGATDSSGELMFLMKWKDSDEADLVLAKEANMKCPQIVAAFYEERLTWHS
Protocol: as §1, §2

[6] = molecular target: T5, HP1γ-CSD^D131A (Homo sapiens, UniProt Q13185, D131A); assay: ITC, HP1γ-CSD D131A mutant; format: binding; settings: 20 °C, 20 mmol/L Tris-HCl, 150 mmol/L NaCl, pH 7.5, Fig. 2G
T5 construct: HP1γ CSD (110–176aa) and TRIM66 PxVxL motif peptide(856–868aa), mixed at a molar ratio of 1:1.2; His6 (N); made in house
T5 sequence (Q13185 110-176 D131A): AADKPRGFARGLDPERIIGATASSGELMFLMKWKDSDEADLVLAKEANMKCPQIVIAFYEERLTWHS
Protocol: as §1, §2

[7] = molecular target: T6, HP1γ-CSD^R171A (Homo sapiens, UniProt Q13185, R171A); assay: ITC, HP1γ-CSD R171A mutant; format: binding; settings: 20 °C, 20 mmol/L Tris-HCl, 150 mmol/L NaCl, pH 7.5, Fig. 2G
T6 construct: HP1γ CSD (110–176aa) and TRIM66 PxVxL motif peptide(856–868aa), mixed at a molar ratio of 1:1.2; His6 (N); made in house
T6 sequence (Q13185 110-176 R171A): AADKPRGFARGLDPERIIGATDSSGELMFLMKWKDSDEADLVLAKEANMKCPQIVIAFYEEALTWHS
Protocol: as §1, §2

[8] = tested on: condensates formed by mEGFP-TRIM66 and mCherry-HP1γ in U2OS cells; assay: Live-cell imaging of condensates before and after 1,6-hexanediol; format: cell-based; settings: 10% 1,6-hexanediol for 5 min, 10 independent fields from one cell dish
Protocol: U2OS cells and HeLa cells were cultured in high-glucose DMEM supplemented with 10% fetal bovine serum and 1% penicillin-streptomycin at 37 °C in a humidified incubator containing 5% CO2. Following the manufacturer's instructions, cells were transfected with plasmid DNA using Lipofectamine 3000 (Thermo Fisher Scientific).
Genes encoding human TRIM66 or its constructs were cloned into the pmEGFP-C3 (Clontech) vector with an N-terminal mEGFP tag or the Flag vector with an N-terminal Flag tag. Genes encoding human HP1γ or HP1γ^L172A/W174A were cloned into the pcDNA3.1 vector with an N-terminal mCherry tag.
U2OS cells were cultured on 35-mm glass bottom dishes (Wuxi NEST Biotechnology Co., Ltd) coated with poly-D-lysine (Sigma-Aldrich). L-15 medium without phenol red (Thermo Fisher Scientific) was used during live-cell imaging to maintain a suitable environment for cell growth, and the temperature was kept at approximately 37 °C. Images were obtained with a Nikon Ti fluorescent inverted microscope with a 100× 1.4 NA objective; an XY Piezo Z stage (Applied Scientific Instrumentation); a spinning disk confocal unit (Yokogawa); and an electron multiplier CCD camera (Andor) controlled by IQ3 live-cell imaging software (Andor). Images collected with this system were 16-bit and consisted of 512 × 512 pixels, and the pixel size was 0.12 μm.

[9] = tested on: HP1γ and nuclear extract (NE); assay: GST pull-down assay; format: binding, human; settings: glutathione-Sepharose, 20 mmol/L Tris, 150 mmol/L NaCl, 1 mmol/L DTT, pH 7.5, 6 h at 4 °C; SDS-PAGE and western blot
Protocol: The gene for human TRIM66 full-length (residues 1–1050) was purchased from Life Technologies. All the DNA fragments for the human TRIM66 (residues 820–909, 840–909) were amplified by PCR. The proteins were cloned into a modified pGEX4T-1vector with a GST tag and TEV protease cleavage site. The proteins were expressed in Escherichia coli BL21 (DE3) cells and induced with 0.5 mmol/L IPTG for 24 h at 16 °C. The protein was purified by GST column (Cytiva Life Sciences), followed by TEV protease cleavage and size-exclusion chromatography on a Hiload 16/60 Superdex 200 column (Cytiva Life Sciences).
Nuclear extracts (NEs) were prepared as described with slight modifications. HeLa cells (1 × 10^8 cells/mL) were suspended with 4 mL of Buffer A comprising 0.5 mmol/L EDTA, 2 mmol/L MgCl2, 0.1% (v/v) protease inhibitor (PI) (Nakalai Tesque, Japan), 2 mmol/L β-mercaptoethanol, 10 mmol/L Tris–HCl, pH 7.8, and centrifuged at 1500 g for 2 min at 4 °C. […] The concentrations of NEs were determined by DNA concentrations calculated from the absorbance at 260 nm.
The GST alone control, GST-tagged protein (TRIM66^820–909) was bound to glutathione-Sepharose beads (Cytiva Life Sciences) in a buffer of 20 mmol/L Tris, 200 mmol/L NaCl, and 1 mmol/L DTT at pH 7.5, and incubated at 4 °C for 4 h. […] The proteins captured by beads were eluted and analyzed by SDS-PAGE and western blot.

Chain of HP1γ chromo shadow domain (CSD), residues 110-176 (human) (Q13185 110-176): as the sequence (Q13185 110-176) above

In the case of “TRIM66 PxVxL motif peptide (residues 856-868)”, the Kd [1] is reported as 280 nM and the stoichiometry N (HP1γ-CSD per TRIM66 peptide (2:1)) [1] is reported as 2.

`CC[C@H](C)[C@H](NC(=O)[C@H](CCCCN)NC(=O)[C@H](Cc1c[nH]cn1)NC(=O)[C@@H](N)CCC(=O)O)C(=O)N1CCC[C@H]1C(=O)N[C@@H](Cc1ccc(O)cc1)C(=O)N[C@H](C(=O)N[C@@H](CCCNC(=N)N)C(=O)N[C@@H](CC(C)C)C(=O)N[C@@H](CCC(=O)O)C(=O)N[C@@H](CCCNC(=N)N)C(=O)N[C@@H](CC(C)C)C(=O)N[C@@H](CCCCN)C(=O)O)C(C)C` [TRIM66^856-868] (H-EHKIPYVRLERLK-OH) was tested, and the Kd [2] was 280 ± 20 nM, the KD [3] was “No binding” and the KD [4] was “No binding”. For the same molecule, the KD [5] was “No binding”, the Kd [6] was 1360 ± 109 nM and the Kd [7] was 2050 ± 38 nM.

For `OCCCCCCO` [1,6-hexanediol], the “effect on mEGFP-TRIM66 and mCherry-HP1γ condensates” value [8] was “depolymerized and the fluorescence signal was evenly distributed in the entire nucleus”.

B1: GST-TRIM66^820-909: GST-tagged TRIM66 residues 820–909, which contains HP1γ-CSD binding motif (protein, UniProt O15016 820-909, looked up, fragment)
chain: NLISDSPQAMASLASDHPQAGPSLMSGHTQAVPSLATCPLQSIPPVSDMQPETGSSSSSGRTSGSLCPRDGADPSLENALCKMESEDSTR
modifications: GST tag
B1 was tested, and the “complex formation with HP1γ and NE (GST pull-down)” value [9] was “can form stable complexes”.
